Marks after values point to notes of the source that are not given here.
System: cancer-related neuropathic pain
Assay: Open label dose escalation study of flupirtine, case studies JE and RM
Settings: for SCORE WALKING / SCORE ENJOYMENT / SCORE TOTAL ACTIVITY / SCORE MOOD / SCORE RELATIONSHIPS / SCORE SLEEP / SCORE GENERAL ACTIVITY: pain interference 1-10; for SCORE WALKING: day 1 baseline 7; for SCORE ENJOYMENT / SCORE TOTAL ACTIVITY / AVERAGE PAIN LAST 24 HOURS: day 1 baseline 8; for SCORE NAUSEA / SCORE UN[…] GAIT: day 1 baseline 2; for SCORE POOR CONCENTRATION / WHO PERFORMANCE STATUS / SCORE SLEEP: day 1 baseline 3; for SCORE DROWSINESS / SCORE POOR APPETITE: day 1 baseline 4; for WORST PAIN SCORE LAST 24 HOURS: day 1 baseline 10; for neuropathic dwascriminant function score: >0 = neuropathic, day 1 baseline 2.448; for freezing pain score / score for increased pain due to touch / score for increased pain due to weather changes / squeezing pain score: day 1 baseline 0; for burning pain score: day 1 baseline 90; for electric pain score / for shooting pain score / numbness score / score for overly sensitive to touch / tingling pain score / unpleasant pain score: day 1 baseline 95; for overwhelming pain score: day 1 baseline 98; for SCORE GENERAL ACTIVITY: day 1 baseline 5
[1] = JE day 5, flupirtine 100 mg qid
[2] = JE day 5, flupirtine 100 mg qid, scale 1-4, day 1 baseline 1
[3] = JE day 5, flupirtine 100 mg qid, scale 1-4
[4] = JE day 5, flupirtine 100 mg qid, scale to 10, day 1 baseline 1
[5] = JE day 5, flupirtine 100 mg qid, scale to 10
[6] = JE day 6, flupirtine 100 mg qid
[7] = JE day 6, flupirtine 100 mg qid, day 1 baseline 1
[8] = JE day 6, flupirtine 100 mg qid, scale 1-4, day 1 baseline 1
[9] = JE day 6, flupirtine 100 mg qid, scale 1-4
[10] = JE day 6, flupirtine 100 mg qid, scale to 10, day 1 baseline 1
[11] = JE day 6, flupirtine 100 mg qid, scale to 10
[12] = JE day 7, flupirtine 100 mg qid
[13] = JE day 7, flupirtine 100 mg qid, day 1 baseline 1
[14] = JE day 7, flupirtine 100 mg qid, scale 1-4, day 1 baseline 1
[15] = JE day 7, flupirtine 100 mg qid, scale 1-4
[16] = JE day 7, flupirtine 100 mg qid, scale to 10, day 1 baseline 1
[17] = JE day 7, flupirtine 100 mg qid, scale to 10
[18] = JE day 8, flupirtine 100 mg qid
[19] = JE day 8, flupirtine 100 mg qid, day 1 baseline 1
[20] = JE day 8, flupirtine 100 mg qid, scale 1-4
[21] = JE day 8, flupirtine 100 mg qid, scale 1-4, day 1 baseline 1
[22] = JE, day after day 8 (discharge), flupirtine 100 mg QID with Oxycontin 40 mg/24 hrs, scale to 10

CCOC(=O)Nc1ccc(NCc2ccc(F)cc2)nc1N [flupirtine]
SCORE WALKING [1]: 1
SCORE ENJOYMENT [1]: 3
SCORE TOTAL ACTIVITY [1]: 1
SCORE CONSTIPATION [2]: 4
SCORE INDIGESTION [2]: 1
SCORE NAUSEA [3]: 1
SCORE UN[…] GAIT [3]: 4
SCORE POOR CONCENTRATION [3]: 4
SCORE DROWSINESS [3]: 4
SCORE POOR APPETITE [3]: 4
LEAST PAIN LAST 24 HRS [4]: 0
PAIN SCORE RIGHT NOW [4]: 0
AVERAGE PAIN LAST 24 HOURS [5]: 0
WORST PAIN SCORE LAST 24 HOURS [5]: 6
WHO PERFORMANCE STATUS (JE day 6, flupirtine 100 mg qid, 0=fully active, 4=completely disabled): 3
neuropathic dwascriminant function score [6]: −1.048
freezing pain score [6]: 0
score for increased pain due to touch [6]: 80
score for increased pain due to weather changes [6]: 0
squeezing pain score [6]: 0
burning pain score [6]: 0
electric pain score [6]: 0
for shooting pain score [6]: 0
numbness score [6]: 0
score for overly sensitive to touch [6]: 0
tingling pain score [6]: 0
unpleasant pain score [6]: 0
overwhelming pain score [6]: 40
SCORE MOOD [7]: 1
SCORE RELATIONSHIPS [7]: 1
SCORE SLEEP [6]: 1
SCORE GENERAL ACTIVITY [6]: 1
SCORE WALKING [6]: 1
SCORE ENJOYMENT [6]: 1
SCORE TOTAL ACTIVITY [6]: 1
SCORE CONSTIPATION [8]: 1
SCORE INDIGESTION [8]: 1
SCORE NAUSEA [9]: 1
SCORE UN[…] GAIT [9]: 3
SCORE POOR CONCENTRATION [9]: 2
SCORE DROWSINESS [9]: 3
SCORE POOR APPETITE [9]: 2
LEAST PAIN LAST 24 HRS [10]: 0
PAIN SCORE RIGHT NOW [10]: 8
AVERAGE PAIN LAST 24 HOURS [11]: 8
WORST PAIN SCORE LAST 24 HOURS [11]: 9
WHO PERFORMANCE STATUS (JE day 7, flupirtine 100 mg qid, 0=fully active, 4=completely disabled): 3
neuropathic dwascriminant function score [12]: −1.408
freezing pain score [12]: 0
score for increased pain due to touch [12]: 0
score for increased pain due to weather changes [12]: 0
squeezing pain score [12]: 0
burning pain score [12]: 0
electric pain score [12]: 0
for shooting pain score [12]: 0
numbness score [12]: 0
score for overly sensitive to touch [12]: 0
tingling pain score [12]: 0
unpleasant pain score [12]: 0
overwhelming pain score [12]: 0
SCORE MOOD [13]: 1
SCORE RELATIONSHIPS [13]: 1
SCORE SLEEP [12]: 1
SCORE GENERAL ACTIVITY [12]: 1
SCORE WALKING [12]: 1
SCORE ENJOYMENT [12]: 1
SCORE TOTAL ACTIVITY [12]: 1
SCORE CONSTIPATION [14]: 1
SCORE INDIGESTION [14]: 1
SCORE NAUSEA [15]: 1
SCORE UN[…] GAIT [15]: 2
SCORE POOR CONCENTRATION [15]: 1
SCORE DROWSINESS [15]: 3
SCORE POOR APPETITE [15]: 3
LEAST PAIN LAST 24 HRS [16]: 0
PAIN SCORE RIGHT NOW [16]: 0
AVERAGE PAIN LAST 24 HOURS [17]: 0
WORST PAIN SCORE LAST 24 HOURS [17]: 4
WHO PERFORMANCE STATUS (JE day 8, flupirtine 100 mg qid, 0=fully active, 4=completely disabled): 3
freezing pain score [18]: 0
score for increased pain due to touch [18]: 0
score for increased pain due to weather changes [18]: 0
squeezing pain score [18]: 0
burning pain score [18]: 0
electric pain score [18]: 0
for shooting pain score [18]: 0
numbness score [18]: 90
score for overly sensitive to touch [18]: 0
tingling pain score [18]: 0
unpleasant pain score [18]: 95
overwhelming pain score [18]: 95
SCORE MOOD [19]: 8
SCORE RELATIONSHIPS [19]: 1
SCORE SLEEP [18]: 10
SCORE GENERAL ACTIVITY [18]: 1*
SCORE WALKING [18]: 1*
SCORE ENJOYMENT [18]: 8
SCORE TOTAL ACTIVITY [18]: 1*
other symptoms hallucinations [20]: 1-
SCORE CONSTIPATION [21]: 1*
SCORE INDIGESTION [21]: 1
other symptom twitch [21]: 1-
SCORE NAUSEA [20]: 1*
SCORE POOR CONCENTRATION [20]: 1*
SCORE DROWSINESS [20]: 1*
SCORE POOR APPETITE [20]: 1*
PAIN SCORE RIGHT NOW (JE day 8, flupirtine 100 mg qid, scale to 10, day 1 baseline 1): 9
AVERAGE PAIN LAST 24 HOURS (JE day 8, flupirtine 100 mg qid, scale to 10): 7
WHO performance status score (JE, day after day 8 (discharge), flupirtine 100 mg QID with Oxycontin 40 mg/24 hrs, 0=fully active, 4=completely disabled): 2
average pain score for the previous 24 hours [22]: 0
least pain [22]: 0
worst pain [22]: 0
WHO PERFORMANCE STATUS (RM day 2, flupirtine 100 mg qid, 0=fully active, 4=completely disabled): 3

Reference: patent US8268821B2, “Methods and compositions” (priority 2003, dated 2012)
